Measured values reported in patent US4250259A, “Microbiological production of ketones from C3 -C6 secondary alcohols” (priority 1979, dated 1981).
“Also recorded” adds a separate entry of the source. Like-named read-outs stand apart in the source and are kept apart here.

What was measured:
[1] = tested on: Methylomonas albus BG8 (NRRL B-11,200); assay: sec-alcohols to ketones by resting cell suspensions; type: cell-based
[2] = tested on: Methylosinus sporium 5 (NRRL B-11,197); assay: as above; type: cell-based
[3] = tested on: cell suspensions of C1-utilizers; assay: studies on production of 2-butanone from 2-butanol by cell suspensions of the strains tested; type: cell-based
From the text: The following summarizes tests conducted on the optimal conditions for the production of methyl ketones from C3 -C6 sec. alcohols.
The substrate specificity for the oxidation of C3 -C6 secondary alcohols by the strains of C1 -utilizers was studied.

[4] = tested on: secondary alcohol dehydrogenase (SADH), cell-free soluble extract; assay: oxidation of sec-alcohols by cell-free soluble extracts; type: biochemical, Methylococcus capsulatus CRL M1 (NRRL B-11,219)
Experimental: (§1) To prepare the cell-free secondary alcohol dehydrogenase (SADH) system, the washed cells were disrupted with a Wave Energy Ultrasonic Oscillator, Model W201 (Wave Energy System, Inc., Newtown, Pa.) and centrifuged at 20,000×g. for 30 minutes. […] The enzyme activity was measured with a fluorescence spectrophotometer (Perkin Elmer, Model MPF 44A) by following the formation of reduced NAD (EX 340 nm, Em 460 nm). The formation of reduced NAD was also followed with an absorption spectrophotometer at 340 nm. The assay system (3 ml.) contained: potassium phosphate buffer pH 7.0; 150 μmol.; NAD 1 μmol.; a given amount of enzyme preparation; and secondary alcohol 10 μmol. The reaction was started by the addition of substrate. One unit of enzyme activity represents the reduction of one μmole NAD per minute. Protein concentrations were determined by the Lowry method (J. Biol. Chem., 193: 255-275 (1951)).
(§2) The experimental procedure for the tests reported in Table VIII were as follows: 1 mg protein of crude extract was added into a 0.5 ml. 0.05 M phosphate buffer (pH 7.0) in a 10-ml. vial. […] The reaction mixture was incubated at 30° C. on a water bath. A 3 μl sample was removed with a syringe at 15 min. of incubation and was assayed with g.l.c. Catalytic activity was also assayed by fluorescence spectrophotometry.

[5] = tested on: secondary alcohol dehydrogenase (SADH), cell-free soluble extract; assay: as above; type: biochemical, Methylobacterium organophilum CRL 26 (NRRL B-11,222)
Experimental: as §1, §2

[6] = tested on: secondary alcohol dehydrogenase (SADH), cell-free soluble extract; conditions: Growth Substrate CH4
Experimental: as §1, §2

[7] = tested on: purified secondary alcohol dehydrogenase (SADH); assay: substrate specificity and Michaelis constants of purified SADH; type: biochemical, Pseudomonas sp. ATCC 21439
[8] = tested on: Hansenula polymorpha ATCC 26012; assay: sec-alcohols to ketones by cell suspensions of yeasts; type: cell-based
Pichia sp. NRRL-Y-11328 = assay: as above; type: cell-based
[9] = tested on: cell extracts (NAD+-dependent secondary alcohol dehydrogenase); assay: sec-alcohols to methyl ketones by cell extracts of yeasts, gas chromatography; type: biochemical, Torulopsis sp. strain A1 NRRL-Y-11,419; conditions: grown on methanol
[10] = tested on: cell extracts (NAD+-dependent secondary alcohol dehydrogenase); assay: as above; type: biochemical, Kloeckera sp. strain A2 NRRL-Y-11,420; conditions: grown on methanol
[11] = tested on: purified secondary alcohol dehydrogenase; assay: substrate specificity, electron acceptor and stoichiometry of purified yeast SADH
[12] = soluble crude extract, grown on methanol

## CCC(C)O (centres unmarked) [2-Butanol, 2-butanol]
[1]; cells grown on methane
  Conversion Rates, sec-alcohol to corresponding ketone: 3.5 μmoles/hr/mg protein
[1]; cells grown on methanol
  Conversion Rates, sec-alcohol to corresponding ketone: 3.0 μn moles/hr/mg protein
[2]; cells grown on methane
  Conversion Rates, sec-alcohol to corresponding ketone: 3.0 μmoles/hr/mg protein
[2]; cells grown on methanol
  Conversion Rates, sec-alcohol to corresponding ketone: 3.5 μn moles/hr/mg protein
[3]; cell suspensions
  rate of oxidation of secondary alcohols by strains of C1-utilizers: highest rate; also recorded: higher rates
[3]; cell suspensions of yeast and Pseudomonas sp. ATCC 21,439, 35 min. incubation
  2-butanol concentration supporting maximum 2-butanone production: about 50 μmoles
[4]; Growth Substrate CH3 NH2
  Conversion Rate, 2-butanol to 2-butanone: 1.8 nmoles/min/mg protein
[4]; Growth Substrate CH3 OH
  Conversion Rate, 2-butanol to 2-butanone: 2.0 nmoles/min/mg protein
[4]; Growth Substrate CH4
  Conversion Rate, 2-butanol to 2-butanone: 3.2 nmoles/min/mg protein
[4]; Growth Substrate HCOOCH3
  Conversion Rate, 2-butanol to 2-butanone: 2.0 nmoles/min/mg protein
[4]; [12]
  Oxidation Rate, sec-alcohol to corresponding ketone: 2.0 nmole/min/mg protein
[5]; Growth Substrate CH3 NH2
  Conversion Rate, 2-butanol to 2-butanone: 2.0 nmoles/min/mg protein
[5]; Growth Substrate CH3 OH
  Conversion Rate, 2-butanol to 2-butanone: 2.5 nmoles/min/mg protein
[5]; Growth Substrate CH4
  Conversion Rate, 2-butanol to 2-butanone: 1.8 nmoles/min/mg protein
[5]; Growth Substrate HCOOCH3
  Conversion Rate, 2-butanol to 2-butanone: 2.0 nmoles/min/mg protein
[5]; [12]
  Oxidation Rate, sec-alcohol to corresponding ketone: 2.5 nmole/min/mg protein
[6]
  Conversion Rate, 2-butanol to 2-butanone: 2.6 nmoles/min/mg protein
[7]
  oxidation by purified SADH: highest
[8]; Growth Substrate Ethanol
  Conversion Rate, sec-alcohol to corresponding ketone: 4.8 μmoles/hr/mg of protein
[8]; Growth Substrate Methanol
  Conversion Rate, sec-alcohol to corresponding ketone: 5.8 μmoles/hr/mg of protein
[8]; Growth Substrate Methylamine
  Conversion Rate, sec-alcohol to corresponding ketone: 4.5 μmoles/hr/mg of protein
[8]; Growth Substrate Methylformate
  Conversion Rate, sec-alcohol to corresponding ketone: 5.2 μmoles/hr/mg of protein
[8]; Growth Substrate Propylamine
  Conversion Rate, sec-alcohol to corresponding ketone: 4.0 μmoles/hr/mg of protein
Pichia sp. NRRL-Y-11328; Growth Substrate Ethanol
  Conversion Rate, sec-alcohol to corresponding ketone: 6.2 μmoles/hr/mg of protein
Pichia sp. NRRL-Y-11328; Growth Substrate Methanol
  Conversion Rate, sec-alcohol to corresponding ketone: 6.8 μmoles/hr/mg of protein
Pichia sp. NRRL-Y-11328; Growth Substrate Methylamine
  Conversion Rate, sec-alcohol to corresponding ketone: 5.1 μmoles/hr/mg of protein
Pichia sp. NRRL-Y-11328; Growth Substrate Methylformate
  Conversion Rate, sec-alcohol to corresponding ketone: 6.9 μmoles/hr/mg of protein
Pichia sp. NRRL-Y-11328; Growth Substrate Propylamine
  Conversion Rate, sec-alcohol to corresponding ketone: 2.1 μmoles/hr/mg of protein
[9]
  Conversion Rate, sec-alcohol to methyl ketone: 4.9 μmoles/hr/mg Protein
[10]
  Conversion Rate, sec-alcohol to methyl ketone: 5.9 μmoles/hr/mg Protein
[11]; examined spectrophotometrically
  oxidation by the purified yeast secondary alcohol dehydrogenase: catalyzed the oxidation
[11]; stoichiometry, Acetone from Isopropanol, 2-Butanone from 2-Butanol, gas chromatography
  Product Formed: 5.7 µmol
